The subject of one data set is MDA-MB-231 cells. Details: method as in PMID 35008392. The following applies: cited from earlier work.
Data set [1] deals with subcutaneous MDA-MB-231 models. Kind of data set: Endogenous therapy study (CT-based tumour growth, survival, [18F]FDG PET). The data set is classed as in vivo, NOD/SCID mice. As to the method:
Female NOD/SCID mice at 5–6 weeks of age (Janvier, France) was used for developing subcutaneous TNBC tumour. Animals were housed in 20–24 °C in a 12 h day light cycle. For each mouse, 3 × 10^6 MDA-MB-231 cells were suspended in a 1:1 (volume) mixture of Culture media: Matrigel® matrix (Corning®, Product No: 356237). Mice were inoculated with this cell suspension (max 200 µl) subcutaneously in the right flank. Tumour growth was monitored daily using calliper measurements. Tumour volume was calculated daily according to the formula Tumourvolume=TumourLength×Tumourbreadth^2×0.52
Upon reaching of a tumour volume of 500 mm^3, animals were proceeded for experiments. For biodistribution study animals were administered with [^123I]PARPi-01 (n = 3). For therapy studies animals were randomized for control (n = 10) or [^125I]PARPi-01 administration (n = 10). Randomisation was done based on equivalent distribution of tumour volumes. In addition to the daily calliper measurements image analysis of CT based tumour volumes was blinded to avoid bias. Animals were sacrificed upon completion of biodistribution study or upon reaching a humane end point for the therapy study. Humane end point is determined as reaching of either of the following conditions: 15 mm tumour diameter, 1500 mm^3 tumour volume, or development of ulcers/ascites.
Mice were administered intravenously via lateral tail vain with Saline (0.9% NaCl) or [^125I]PARPi-01 (8.15 ± 2.9 MBq/dose) in four doses at 10-day intervals. The tumour volume was measured using [^18F]FDG based PET/CT (Trifoil, USA) once per week. [^18F]FDG (2.3 ± 0.4 MBq, AAA, Düsseldorf, Germany) was intraperitoneally administered and scanned 30 min later. Upon reaching 520 mm^3 tumour volume, one additional CT imaging per week (Trifoil, USA) apart from the PET/CT was performed for monitoring tumour growth.
After injection with [^18F]FDG, the mice were placed on the scanner bed and the CT scan was initiated. The exposure settings used were as follows: 130 uA, 75 kVp, 230 ms exposure time, and 360° rotation with 512 views; the duration of the CT scans was ~ 5 min. A dynamic 30 min PET scan was initiated at the end of the CT scan. […] During the scans, the isoflurane concentration was adapted to achieve a respiratory rate between 75–50 breaths per minute. Mice were maintained at 1% Isoflurane and heated at 37 °C from anaesthesia induction to the end of imaging. The CT images were reconstructed using a Feldkamp filtered back projection reconstruction process to a voxel size of 0.154 × 0.154 × 0.154 mm in a 592 × 592 × 560 matrix. Using vendor software, the CT values were converted into Hounsfield units (HU) using the following formula HU=1000×μt-μw÷μw where µw is the linear attenuation coefficient of the water and µt is the linear attenuation coefficient of the tissue. The PET data were reconstructed using a 3D ordered-subset expectation maximization (i.e., OSEM-3D with three iterations and eight subsets) with a maximum a posteriori probability algorithm (30 iterations) into a 240 × 240 × 192 image matrix (resulting in final voxel dimensions of 0.25 × 0.25 × 0.597 mm). PET normalization, CT attenuation correction, and CT scatter correction were applied to all PET reconstructions. The PET images were automatically aligned to the CT using a custom-made transformation in PMOD software package from a capillary phantom.
All statistical analyses were performed using the Graph-Pad Prism software (Version 9.1.1). Biodistribution data is expressed as mean ± standard deviation. Kaplan–Meier Survival curve was analysed using survival analysis (Log rank Mantel-Cox test). The data points of the normalized tumour volume as a function of the time of the groups (Control, ^125I-PARPi, Control—excluded ulcers, ^125I-PARPi—excluded ulcers) were subjected to nonlinear regression analysis using the exponential growth formula Y = Y0*exp(k*x) (Malthusian). Accordingly, the doubling time is equal to ln(2)/k. […]

Regarding `O=C(c1ccc([125I])cc1)N1CCN(C(=O)c2cc(Cc3n[nH]c(=O)c4ccccc34)ccc2F)CC1` [[^125I]PARPi-01], the “level of apoptosis induction” value with MDA-MB-231 cells is recorded as “remained comparable low”. For the same compound, in data set [1] (4 doses, 10 MBq/dose), the “radiotoxicity in liver and thyroid” value was “No radiotoxicity was detected”. Also, the tumour doubling time in data set [1] (CT-based, excluding animals sacrificed for ulcers/ascites, n = 5) came out at 15.07 days; in data set [1] (CT-image-based, 4 doses 10 days apart, all animals n = 10) it was 14.2 days. Moreover, in data set [1] (all animals n = 10, not significant vs control (P = 0.2505)), the median survival is 36 days. In addition, in data set [1] (excluding animals sacrificed for ulcers/ascites), the median survival time stood at 38. Moreover, the “[18F]FDG PET SUV values and tumour metabolic volumes, therapy vs control” value in data set [1] (mouse, in vivo) was “did not show significant difference”.

The values are drawn from article PMC9474773, “PARP targeted Auger emitter therapy with [^125I]PARPi-01 for triple-negative breast cancer” (EJNMMI Research, 2022).
